The values that follow are results of earlier work, collected in patent publication US20230349886A1, “SYSTEMS AND METHODS FOR PREDICTING CARDIOTOXICITY OF MOLECULAR PARAMETERS OF A COMPOUND BASED ON MACHINE LEARNING ALGORITHMS” (UTI Limited Partnership, priority 2015, published 2023).

By IC50 is commonly meant the midpoint of a concentration-inhibition curve. As usually defined, the pIC50 is the negative decadic logarithm of the IC50, by convention in mol/L.

For series [1], the target named is T1, Nav1.5 (Homo sapiens, UniProt Q14524). Particulars: Nav1.5 training/test/validation set; 92 actives and 860 inactive compounds; 1 = active.
For series [2] the following is noted: for Free drug: experimental data file, Kramer et al. 2013.
The conditions of series [3]: Brown dataset; flag given as 1 or 0.
The target of another series is Cav1.2 (Homo sapiens, UniProt Q13936). Particulars: for CAV1p2-maxinhib: maximal inhibition.
Chain of Cav1.2 (Q13936 1-2138 isoform Q13936-12): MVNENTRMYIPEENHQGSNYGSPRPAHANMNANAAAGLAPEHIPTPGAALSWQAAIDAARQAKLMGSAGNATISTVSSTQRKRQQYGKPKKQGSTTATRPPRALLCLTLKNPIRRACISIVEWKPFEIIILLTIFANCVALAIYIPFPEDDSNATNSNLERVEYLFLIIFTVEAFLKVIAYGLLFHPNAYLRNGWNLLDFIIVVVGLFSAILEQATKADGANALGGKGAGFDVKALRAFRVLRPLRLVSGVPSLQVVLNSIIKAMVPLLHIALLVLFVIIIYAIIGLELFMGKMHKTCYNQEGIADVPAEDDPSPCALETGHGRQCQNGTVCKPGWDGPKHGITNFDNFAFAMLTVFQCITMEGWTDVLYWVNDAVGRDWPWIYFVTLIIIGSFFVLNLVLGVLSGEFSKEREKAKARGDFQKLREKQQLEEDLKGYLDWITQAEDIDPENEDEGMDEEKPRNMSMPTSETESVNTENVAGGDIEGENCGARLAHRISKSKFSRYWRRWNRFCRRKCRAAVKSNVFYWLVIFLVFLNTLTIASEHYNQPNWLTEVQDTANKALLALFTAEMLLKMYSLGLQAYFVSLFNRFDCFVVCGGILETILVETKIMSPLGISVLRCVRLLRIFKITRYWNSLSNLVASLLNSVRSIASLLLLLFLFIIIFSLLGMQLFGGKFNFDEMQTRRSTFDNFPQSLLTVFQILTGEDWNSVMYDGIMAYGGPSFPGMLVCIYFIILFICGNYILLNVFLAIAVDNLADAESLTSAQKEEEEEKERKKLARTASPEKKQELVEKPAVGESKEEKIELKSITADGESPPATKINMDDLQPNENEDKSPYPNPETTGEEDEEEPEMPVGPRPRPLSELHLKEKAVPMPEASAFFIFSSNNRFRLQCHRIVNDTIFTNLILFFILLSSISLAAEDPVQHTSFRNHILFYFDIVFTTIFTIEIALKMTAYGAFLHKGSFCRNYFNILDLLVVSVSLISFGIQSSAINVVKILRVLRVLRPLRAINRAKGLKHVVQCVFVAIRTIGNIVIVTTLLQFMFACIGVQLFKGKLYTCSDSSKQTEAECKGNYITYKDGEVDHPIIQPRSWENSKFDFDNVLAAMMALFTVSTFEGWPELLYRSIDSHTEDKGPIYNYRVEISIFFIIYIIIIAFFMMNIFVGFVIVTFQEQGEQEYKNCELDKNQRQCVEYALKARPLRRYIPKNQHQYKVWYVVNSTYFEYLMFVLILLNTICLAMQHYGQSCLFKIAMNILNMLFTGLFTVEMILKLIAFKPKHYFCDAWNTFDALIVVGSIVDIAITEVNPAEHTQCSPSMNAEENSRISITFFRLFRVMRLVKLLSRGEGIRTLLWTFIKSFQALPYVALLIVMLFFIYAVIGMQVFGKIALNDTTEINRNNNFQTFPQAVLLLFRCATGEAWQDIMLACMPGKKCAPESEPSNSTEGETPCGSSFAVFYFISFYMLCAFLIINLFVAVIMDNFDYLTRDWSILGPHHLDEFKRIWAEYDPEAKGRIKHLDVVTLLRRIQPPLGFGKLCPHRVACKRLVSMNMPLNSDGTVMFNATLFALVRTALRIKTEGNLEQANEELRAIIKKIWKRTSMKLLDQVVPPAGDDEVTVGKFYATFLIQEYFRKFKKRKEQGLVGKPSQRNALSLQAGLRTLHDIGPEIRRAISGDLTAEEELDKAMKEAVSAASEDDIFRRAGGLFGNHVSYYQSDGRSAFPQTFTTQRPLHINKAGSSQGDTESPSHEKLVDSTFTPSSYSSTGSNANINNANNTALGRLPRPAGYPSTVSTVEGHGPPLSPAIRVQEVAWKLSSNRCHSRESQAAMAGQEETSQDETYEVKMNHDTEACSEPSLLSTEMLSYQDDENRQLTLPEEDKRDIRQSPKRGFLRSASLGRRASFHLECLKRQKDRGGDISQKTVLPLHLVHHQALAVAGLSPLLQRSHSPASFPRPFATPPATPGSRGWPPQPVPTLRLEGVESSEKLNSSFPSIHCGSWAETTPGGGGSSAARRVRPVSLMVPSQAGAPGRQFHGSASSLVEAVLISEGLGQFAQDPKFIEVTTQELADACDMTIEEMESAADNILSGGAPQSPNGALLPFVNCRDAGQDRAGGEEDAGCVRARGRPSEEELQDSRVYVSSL
Chain of Cav1.2 (Q08289 whole entry partner): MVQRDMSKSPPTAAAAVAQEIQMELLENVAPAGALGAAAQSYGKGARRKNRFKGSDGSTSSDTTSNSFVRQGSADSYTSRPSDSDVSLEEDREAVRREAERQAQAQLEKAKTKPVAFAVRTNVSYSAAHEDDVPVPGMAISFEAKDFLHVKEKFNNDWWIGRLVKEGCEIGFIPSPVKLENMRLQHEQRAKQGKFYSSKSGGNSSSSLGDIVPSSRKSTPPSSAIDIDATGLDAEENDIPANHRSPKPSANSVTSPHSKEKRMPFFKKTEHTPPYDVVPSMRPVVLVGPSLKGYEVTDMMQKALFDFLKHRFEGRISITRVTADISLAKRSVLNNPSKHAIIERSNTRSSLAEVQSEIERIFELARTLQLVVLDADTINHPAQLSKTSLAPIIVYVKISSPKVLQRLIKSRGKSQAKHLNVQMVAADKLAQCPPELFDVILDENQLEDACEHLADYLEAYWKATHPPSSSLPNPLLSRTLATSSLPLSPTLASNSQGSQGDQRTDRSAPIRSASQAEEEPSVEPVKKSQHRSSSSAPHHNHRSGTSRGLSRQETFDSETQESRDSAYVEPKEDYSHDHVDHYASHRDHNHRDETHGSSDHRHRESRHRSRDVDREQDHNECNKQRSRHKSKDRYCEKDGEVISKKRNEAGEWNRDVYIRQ
Chain of Cav1.2 (P54289 25-946 partner limits assumed): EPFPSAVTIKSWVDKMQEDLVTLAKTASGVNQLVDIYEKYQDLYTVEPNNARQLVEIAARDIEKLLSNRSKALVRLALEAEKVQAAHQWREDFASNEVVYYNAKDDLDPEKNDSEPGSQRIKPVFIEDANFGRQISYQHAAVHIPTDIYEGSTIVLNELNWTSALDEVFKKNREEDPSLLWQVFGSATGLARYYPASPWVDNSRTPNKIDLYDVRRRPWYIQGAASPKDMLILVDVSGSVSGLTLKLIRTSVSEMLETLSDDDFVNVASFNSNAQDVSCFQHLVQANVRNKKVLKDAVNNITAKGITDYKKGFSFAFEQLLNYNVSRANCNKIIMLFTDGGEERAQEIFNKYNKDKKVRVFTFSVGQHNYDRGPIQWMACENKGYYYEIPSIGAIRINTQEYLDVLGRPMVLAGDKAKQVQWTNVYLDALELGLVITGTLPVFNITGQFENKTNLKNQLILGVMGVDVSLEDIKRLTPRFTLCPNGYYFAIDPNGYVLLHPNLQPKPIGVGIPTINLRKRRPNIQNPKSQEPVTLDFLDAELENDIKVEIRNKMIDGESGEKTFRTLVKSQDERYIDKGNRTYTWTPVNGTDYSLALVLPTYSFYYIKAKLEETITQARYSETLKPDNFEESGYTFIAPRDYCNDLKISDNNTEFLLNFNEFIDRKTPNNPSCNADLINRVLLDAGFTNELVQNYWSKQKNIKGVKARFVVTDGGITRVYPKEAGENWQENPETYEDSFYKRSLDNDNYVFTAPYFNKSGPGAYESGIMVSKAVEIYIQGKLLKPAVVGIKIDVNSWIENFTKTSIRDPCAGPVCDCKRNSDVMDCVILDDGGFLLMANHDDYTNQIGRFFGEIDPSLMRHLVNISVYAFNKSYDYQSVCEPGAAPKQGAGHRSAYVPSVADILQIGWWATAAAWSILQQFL
Chain of Cav1.2 (P54289 947-1103 partner limits assumed): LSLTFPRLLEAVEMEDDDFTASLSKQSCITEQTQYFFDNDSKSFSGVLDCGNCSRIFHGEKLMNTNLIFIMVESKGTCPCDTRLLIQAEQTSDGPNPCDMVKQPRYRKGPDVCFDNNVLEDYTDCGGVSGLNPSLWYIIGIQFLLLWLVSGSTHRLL
For series [4], the target named is T1, Nav1.5.
Series [5] concerns the target Nav1.5 (Homo sapiens, UniProt Q14524, S234P/V215L).
The next series addresses hERG (Homo sapiens, UniProt Q12809). The conditions noted are these: for HERG-maxinhib: maximal inhibition.
Setting [6] is: Table 11, calculated from HERG-IC50 of the Kramer et al. 2013 data.
The mark [7] stands for this setting: experimental data, Kramer et al. 2013.
Setting [8] is: read-out: HERG IC50, Brown dataset.
Where [9] appears, read: read-out: HERG-IC50, experimental data, Kramer et al. 2013.
Setting [10] is: read-out: CAV1p2-IC50, experimental data, Kramer et al. 2013.
[11] abbreviates: read-out: CAV1.2 IC50, Brown dataset.
The mark [12] stands for this setting: maximal inhibition, Kramer et al. 2013.
Where [13] appears, read: read-out: NAV1p5-IC50, experimental data, Kramer et al. 2013.
Where [14] appears, read: read-out: NAV1.5 IC50, Brown dataset.
Where [15] appears, read: Brown dataset, negative log of free drug concentration.

Read-outs that look alike come from different tables or passages of the source. Peptide text beside a SMILES is read from it.

Chain of hERG (Q12809 whole entry): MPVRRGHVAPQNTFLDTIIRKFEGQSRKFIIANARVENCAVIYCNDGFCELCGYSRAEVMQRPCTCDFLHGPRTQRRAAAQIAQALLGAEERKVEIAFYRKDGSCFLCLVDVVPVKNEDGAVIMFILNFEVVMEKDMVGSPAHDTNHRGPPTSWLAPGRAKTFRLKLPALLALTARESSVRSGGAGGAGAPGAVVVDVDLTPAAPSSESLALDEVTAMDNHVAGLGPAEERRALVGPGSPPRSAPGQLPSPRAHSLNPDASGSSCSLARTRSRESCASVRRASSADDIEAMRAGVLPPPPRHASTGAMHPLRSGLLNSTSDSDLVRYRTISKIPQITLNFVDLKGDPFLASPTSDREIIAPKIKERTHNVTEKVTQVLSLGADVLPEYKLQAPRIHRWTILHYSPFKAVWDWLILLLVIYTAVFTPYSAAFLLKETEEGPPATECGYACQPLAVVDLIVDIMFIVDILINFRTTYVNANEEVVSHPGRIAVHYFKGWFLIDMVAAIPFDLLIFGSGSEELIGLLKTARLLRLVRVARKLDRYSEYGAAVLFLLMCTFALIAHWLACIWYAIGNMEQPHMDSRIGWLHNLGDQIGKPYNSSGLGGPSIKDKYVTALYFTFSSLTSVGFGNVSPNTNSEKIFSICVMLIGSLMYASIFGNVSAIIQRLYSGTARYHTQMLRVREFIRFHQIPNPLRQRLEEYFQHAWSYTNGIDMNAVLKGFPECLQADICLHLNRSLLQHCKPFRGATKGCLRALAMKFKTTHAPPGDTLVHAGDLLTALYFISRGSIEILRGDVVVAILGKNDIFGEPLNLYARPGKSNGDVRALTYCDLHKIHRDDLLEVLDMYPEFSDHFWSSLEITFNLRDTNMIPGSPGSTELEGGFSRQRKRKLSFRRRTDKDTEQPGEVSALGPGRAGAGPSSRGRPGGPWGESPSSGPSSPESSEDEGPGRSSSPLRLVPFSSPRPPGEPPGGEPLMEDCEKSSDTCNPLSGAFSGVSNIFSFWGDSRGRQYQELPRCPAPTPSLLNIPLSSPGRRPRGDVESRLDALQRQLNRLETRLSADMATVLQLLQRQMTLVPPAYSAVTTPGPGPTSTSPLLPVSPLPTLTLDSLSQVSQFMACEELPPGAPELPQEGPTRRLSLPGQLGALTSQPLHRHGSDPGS

As to `CCCCCC=C(c1cc(Cl)c(OC)c(C(=O)O)c1)c1cc(Cl)c(OC)c(C(=O)O)c1` [CHEMBL111622], on Nav1.5 [1], the activity is given as 1.
For `CC(C)[C@H](NC(=O)CN)C(=O)N[C@@H](CCC(N)=O)C(=O)O` [CHEMBL123454] (H-Gly-Val-Gln-OH), the activity on Nav1.5 [1] is reported as 1.
For the molecule `CCCCCC=C(c1cc(C)c(OC)c(C(=O)OC)c1)c1cc(C)c(OC)c(C(=O)OC)c1` [CHEMBL335768], the activity on Nav1.5 [1] was 1.
Take `O=C(O)CCCCCC/C=C/CO` [CHEMBL458520]: on Nav1.5 [1], the activity is 1.
For `NC(=S)Nc1cccc(OCCCCCN2CCN(c3ccccc3-c3ccccc3)C2=S)c1` [CHEMBL569085], the activity result at Nav1.5 [1] is “Found 92 actives and 860 inactive compounds. 952 CHEMBL569085 1”.
For the molecule `CCCCc1oc2ccccc2c1C(=O)c1cc(I)c(OCCN(CC)CC)c(I)c1` [amiodarone], in series [2], the “Free drug” value was 0.0008 µM. In series [2] (negative log of free drug), the pFD is recorded as 9.097.
In the case of `COc1ccc(CCN2CCC(Nc3nc4ccccc4n3Cc3ccc(F)cc3)CC2)cc1` [astemizole], in series [3], the “Ris (TdP risk flag)” value is given as 1. Also, the “Free drug” value in series [2] is reported as 0.0003 µM. The pFD in series [2] (negative log of free drug) is 9.523.
Regarding `CC(C)COCC(CN(Cc1ccccc1)c1ccccc1)N1CCCC1` (stereo not shown) [bepridil], the CAV1.2 max inhib on Cav1.2 (Brown dataset) was 95.7. Besides, on Cav1.2 (Kramer et al. 2013), the CAV1p2-maxinhib was 95.7. Besides, on Nav1.5 [4], the 50% inhibitory concentration (IC50) was 2.3 µM, the NAV1p5-maxinhib is given as 100, the NAV1p5-pIC50 was 5.638 and the NAV1.5 max inhib is reported as 100. Besides, the “NAV1.5 pIC50” value at Nav1.5 [5] is 5.6382 164. In addition, the “Ris (TdP risk flag)” value in series [3] is reported as 1. Also, the “Free drug” value in series [2] is recorded as 0.035 µM. Moreover, the pFD in series [2] (negative log of free drug) was 7.456.
Turning to `CO/N=C(\C(=O)N[C@@H]1C(=O)N2C(C(=O)O)=C(CSc3nc(=O)c(=O)[nH]n3C)CS[C@H]12)c1csc(N)n1` [ceftriaxone], on hERG (Brown dataset), the “HERG maxInhib” value is 7.5. For the same molecule, the pIC50 on hERG (setting [6]) was 3.351. On hERG (setting [7]), the HERG-pIC50 is 3.351. The HERG-maxinhib on hERG (Kramer et al. 2013) is listed as 7.5. The IC50 was 445 µM on hERG (setting [8]); 446 µM at hERG (setting [9]); 154 µM on Cav1.2 (setting [10]); 154 µM on Cav1.2 (setting [11]); 556 µM on Nav1.5 [4] (setting [13]); 555 µM on Nav1.5 [4] (setting [14]). At Cav1.2 (Brown dataset), the CAV1.2 max inhib was 38.8. Also, the CAV1p2-pIC50 at Cav1.2 (setting [7]) is 3.813. Further, on Cav1.2 (Kramer et al. 2013), the CAV1p2-maxinhib is 38.8. In addition, the NAV1.5 max inhib at Nav1.5 [4] (Brown dataset) was 14.3. In addition, the NAV1p5-pIC50 on Nav1.5 [4] (setting [7]) is on record as 3.255. Besides, on Nav1.5 [4] (setting [12]), the NAV1p5-maxinhib was 14.3. Further, the “Ris (TdP risk flag)” value in series [3] is listed as 0. In addition, the “Free drug” value in series [2] is listed as 23.17 µM. Besides, the pFD in series [2] (negative log of free drug) is reported as 4.635.
As to `Cc1nc(Nc2ncc(C(=O)Nc3c(C)cccc3Cl)s2)cc(N2CCN(CCO)CC2)n1` [dasatinib], the “HERG maxInhib” value on hERG (Brown dataset) is given as 86.6. For the same molecule, at Cav1.2 (Brown dataset), the CAV1.2 max inhib was 52.2. In addition, the NAV1.5 max inhib at Nav1.5 [4] (Brown dataset) was 58.9. Besides, the “Ris (TdP risk flag)” value in series [3] is reported as 0. Moreover, the pFD in series [2] (setting [15]) is reported as 1.387 ^-1614.
Take `CCCCCCCN(CC)CCCC(O)c1ccc(NS(C)(=O)=O)cc1` (stereo not shown) [ibutilide]: at Cav1.2 (Brown dataset), the CAV1.2 max inhib is 85.2 and the “CAV1.2 pIC50” value is listed as 4.2041. The IC50 at Cav1.2 (setting [11]) was 62.5 µM. Also, at Nav1.5 [4] (Brown dataset), the NAV1.5 max inhib is 87.9. At Nav1.5 [4] (setting [14]), the IC50 was 42.5 µM. On Nav1.5 [5] (Brown dataset), the “NAV1.5 pIC50” value was 4.3716. Moreover, the “Ris (TdP risk flag)” value in series [3] is listed as 1. The Free drug concentration in series [2] (Brown dataset) was 140 nM. The pFD in series [2] (setting [15]) was 6.853.
For the molecule `Fc1ccc([C@@H]2CCNC[C@H]2COc2ccc3c(c2)OCO3)cc1` [paroxetine], at hERG (Brown dataset), the “HERG maxInhib” value was 99.5. Besides, on Cav1.2, the CAV1.2 max inhib is 98.5, the “CAV1.2 pIC50” value is listed as 5.409 393 and the concentration for half-maximal inhibition (IC50) is 3.9 µM. Moreover, on Nav1.5 [4], the IC50 is 9.8 µM and the NAV1.5 max inhib is given as 93.7. Besides, at Nav1.5 [5], the “NAV1.5 pIC50” value is 5.009 924. In addition, in series [3], the “Ris (TdP risk flag)” value is 1.
As for `O=C1NC(=O)C(c2ccccc2)(c2ccccc2)N1` [phenytoin], at hERG, the “HERG maxInhib” value is recorded as 16.4. In addition, on Cav1.2 (Brown dataset), the CAV1.2 max inhib is 91.7. In addition, the IC50 at Cav1.2 (setting [11]) is 21.9 µM; at Nav1.5 [4] (setting [14]), 72.4 µM. The NAV1.5 max inhib on Nav1.5 [4] (Brown dataset) is given as 59.3. For the same molecule, the “Ris (TdP risk flag)” value in series [3] is listed as 0. Moreover, in series [2] (Brown dataset), the Free drug concentration was 4360 nM.
Take `Cc1nc2n(c(=O)c1CCN1CCC(c3noc4cc(F)ccc34)CC1)CCCC2` [risperidone]: on hERG (Brown dataset), the “HERG maxInhib” value was 79.7. For the same molecule, the “Ris (TdP risk flag)” value in series [3] is recorded as 1. Also, the Free drug concentration in series [2] (Brown dataset) was 0 nM.
As for `N[C@@H](CC(=O)N1CCn2c(nnc2C(F)(F)F)C1)Cc1cc(F)c(F)cc1F` [sitagliptin], the “HERG maxInhib” value at hERG (Brown dataset) was 35.6. On Cav1.2 (Brown dataset), the CAV1.2 max inhib is recorded as 35.8. In addition, the IC50 at Cav1.2 (setting [11]) was 147 µM; on Nav1.5 [4] (setting [14]), 1220 µM. Moreover, on Nav1.5 [4] (Brown dataset), the NAV1.5 max inhib is listed as 18.3. In addition, the “Ris (TdP risk flag)” value in series [3] is 0.
Turning to `C[C@@H]1CN(c2c(F)c(N)c3c(=O)c(C(=O)O)cn(C4CC4)c3c2F)C[C@H](C)N1` [sparfloxacin], on hERG, the “HERG maxInhib” value is 81.5, the “HERG pIC50” value is on record as 4.656 726, the IC50 was 22.1 µM and the pIC50 is on record as 4.656. The CAV1.2 max inhib on Cav1.2 (Brown dataset) is 50.3. For the same molecule, the IC50 on Cav1.2 (setting [11]) was 88.8 µM. The NAV1.5 max inhib on Nav1.5 [4] (Brown dataset) is on record as 0.8. In addition, on Nav1.5 [4] (setting [14]), the IC50 was 2560 µM. Moreover, in series [3], the “Ris (TdP risk flag)” value is 1.
On to chlorpromazine, for which, on hERG (setting [6]), the pIC50 is recorded as 5.824. Moreover, the HERG-pIC50 at hERG (setting [7]) is 5.824. Further, the HERG-maxinhib on hERG (Kramer et al. 2013) is 96.7. The values for the IC50 at hERG (setting [9]), at Cav1.2 (setting [10]) and on Nav1.5 [4] (setting [13]) were 1.5 µM, 3.4 µM and 3 µM, respectively. For the same molecule, on Cav1.2 (setting [7]), the CAV1p2-pIC50 is reported as 5.469. Also, the CAV1p2-maxinhib on Cav1.2 (Kramer et al. 2013) was 99.2. Besides, the NAV1p5-pIC50 at Nav1.5 [4] (setting [7]) is recorded as 5.523. For the same molecule, the NAV1p5-maxinhib at Nav1.5 [4] (setting [12]) is listed as 97.1. The “Free drug” value in series [2] is recorded as 0.038 µM. Besides, in series [2] (negative log of free drug), the pFD was 7.42.
Consider cilostazol, for which, at hERG (Brown dataset), the “HERG maxInhib” value is listed as 65.9. Besides, the pIC50 at hERG (setting [6]) is listed as 4.86. Moreover, the IC50 is 13.8 µM on hERG (setting [8]), 91.2 µM at Cav1.2 (setting [11]) and 93.7 µM at Nav1.5 [4] (setting [14]). In addition, the CAV1.2 max inhib at Cav1.2 (Brown dataset) is on record as 24.6. For the same molecule, the NAV1.5 max inhib on Nav1.5 [4] (Brown dataset) is 22.9. The “Ris (TdP risk flag)” value in series [3] is 1.
